{"source": "patent US11666586B2", "about": "“Compositions and methods for treating acne vulgaris” (Dermala, Inc., priority 2016, dated 2023)", "key": {"P. acnes (ATCC 6919)": {"system": "P. acnes (ATCC 6919)", "experiment": "Minimum Inhibitory Concentration (MIC) determination, microbroth dilution", "type": "cell-based, Propionibacterium acnes", "settings": "API alone, 48 h anaerobic, ≥90% reduction in growth (OD600); for MIC: Cutibacterium acnes, ATCC6919, read-out: individual MIC", "procedure": "P. acnes (ATCC 6919) was cultured on Brucella plates supplemented with 0.1 g/L hemin, 0.01 g/L vitamin K, and 5% (v/v) defibrinated sheep's blood at 37° C. under anaerobic conditions using a Gas-Pak (BD). For each assay, an inoculum of P. acnes was prepared by suspending a colony of P. acnes in 5 mL Reinforced Clostridium medium (RCM) and growing at 37° C. and 250 RPM under anaerobic conditions for 30 hours. […] Individual MIC values were determined for each drug according to the microbroth dilution method. […] Media without P. acnes and medium with P. acnes only were used for negative and positive controls, respectively, and contained the highest concentration of solvent used in each drug analysis. Plates were incubated under anaerobic conditions using a Gas-Pak (BD) for 48 hours at 37° C. Following incubation, each well was resuspended by pipetting and the optical density at 600 nm (OD600) was determined on a plate reader."}, "[1]": {"system": "S. epidermidis (ATCC 12228)", "experiment": "Fermentation of prebiotics by S. epidermidis", "type": "cell-based, Staphylococcus epidermidis", "settings": "2% prebiotic, six days anaerobic, compared to PBS control", "procedure": "Preparation of Prebiotics: Glycerol, sucrose, β-lactose, and D-(+)-maltose were purchased from Sigma-Aldrich. Stock solutions of each prebiotic (4% w/v) were prepared in water and filtered through a 0.22 μm filter for sterilization.\nPreparation of S. epidermidis conditioned media: S. epidermidis (ATCC 12228) was cultured on trypic soy broth (TSB) agar plates at 37° C. For each assay, an inoculum of S. epidermidis was prepared by suspending one colony of S. epidermidis from a TSB agar plate into 7 ml of TSB broth and growing at 37° C., 215 RPM for 16 hours. The overnight culture was subcultured by adding 100 μl of overnight culture to 10 ml of fresh TSB. Once mid-log phase was reached, the cells were pelleted by centrifugation, washed with PBS and resuspended in fresh PBS. In 15 ml culture tubes, 4.9 ml of Rich Broth (20 g/L yeast extract, 6 g/L TSB) was combined with 40 μl 0.5% phenol red indicator, 5 ml of 4% prebiotic (glycerol, sucrose, β-lactose, or D-(+)-maltose) or PBS as a control, and S. epidermidis (10^5 CFU/ml) and placed in an anaerobic Gas-Pak (BD). The cultures were incubated at 37° C., 215 RPM for 6 days. Following fermentation, the cells were pelleted and the supernatants were filtered through a 0.22 μm filter for sterilization.\nNo change in color occurred in PBS control (a)."}, "P. acnes 6919": {"system": "P. acnes 6919", "experiment": "Time-kill assay", "type": "cell-based, Propionibacterium acnes", "settings": "DRM1 30 mM or salicylic acid […] mM alone (2× MIC); combination […] + […]; RCM broth with 12% propylene glycol"}, "[2]": {"experiment": "Testing of combination products in human subjects with acne", "settings": "spot treatment", "source_text": "The Formulation 1 was applied using Acne Treatment Pads one or two times per day."}, "[3]": {"system": "P. acnes strains RMA#20660 and RMA#20661", "experiment": "MIC against multi-resistant P. acnes strains", "type": "cell-based, Propionibacterium acnes", "procedure": "Individual MIC values were determined for each drug according to the microbroth dilution method. Briefly, 2-fold serial dilutions of each drug (50 μl) were added to wells in a 96-well plate followed by 50 μl of the prepared P. acnes inoculum as described in Example 1. Media without P. acnes and medium with P. acnes only were used for negative and positive controls, respectively, and contained the highest concentration of solvent used in each drug analysis. Plates were incubated under anaerobic conditions using a Gas-Pak (BD) for 48 hours at 37° C. Following incubation, each well was resuspended by pipetting and the optical density at 600 nm (OD600) was determined on a plate reader."}, "biofilm-forming strains": {"system": "biofilm-forming strains", "source_text": "Biofilm formation is an important factor in P. acnes pathogenicity and biofilm is detected in approximately half of hair follicles of acne patients."}, "P. acnes": {"system": "P. acnes", "settings": "serial passage, 10 cycles of 72 hours, method written in future tense", "source_text": "Resistance development may be measured by two methods: single step for the determination of spontaneous frequency of resistance development and serial passage for the determination of progressive resistance development."}}, "note": "Where two headings read alike, the source gives them in different places."}
{"smiles": "O=C(O)c1ccccn1", "note": "[Picolinic acid, picolinic acid]", "values": [{"measurement": "MIC", "setting": "P. acnes (ATCC 6919); P. acnes ATCC 6919", "result": 1.88, "unit": "mM"}]}
{"smiles": "OC[C@H]1O[C@@](CO)(O[C@H]2O[C@H](CO)[C@@H](O)[C@H](O)[C@H]2O)[C@@H](O)[C@@H]1O", "note": "[sucrose]", "values": [{"measurement": "acidification of media (phenol red colour) by S. epidermidis fermentation", "setting": "[1]", "result": "change of color from red to yellow"}]}
{"smiles": "OC[C@H]1O[C@@H](O[C@H]2[C@H](O)[C@@H](O)[C@H](O)O[C@@H]2CO)[C@H](O)[C@@H](O)[C@H]1O", "note": "[β-lactose]", "values": [{"measurement": "acidification of media (phenol red colour) by S. epidermidis fermentation", "setting": "[1]", "result": "change of color from red to yellow"}]}
{"smiles": "O=C(O)c1ccccc1O", "note": "[Salicylic Acid, salicylic acid, reference compound]", "values": [{"measurement": "MIC", "setting": "P. acnes (ATCC 6919); P. acnes ATCC 6919", "result": 7.5, "unit": "mM"}, {"measurement": "growth on plate after 15 minutes", "setting": "P. acnes 6919", "result": "growth was evident"}]}
{"smiles": "OCC(O)CO", "note": "[glycerol]", "values": [{"measurement": "acidification of media (phenol red colour) by S. epidermidis fermentation", "setting": "[1]", "result": "change of color from red to yellow"}]}
{"smiles": "O=C(OOC(=O)c1ccccc1)c1ccccc1", "note": "[BPO, benzoyl peroxide, reference compound]", "values": [{"measurement": "individual MIC", "setting": "P. acnes (ATCC 6919); P. acnes 6919", "result": 125, "unit": "mg/L"}, {"measurement": "MIC", "setting": "P. acnes (ATCC 6919); P. acnes 6919", "result": 125, "unit": "mg/L"}, {"measurement": "hyperpigmentation (dark spot side effect)", "setting": "[2]", "result": "dark spot side effect observed"}]}
{"smiles": "CCC[C@@H]1C[C@@H](C(=O)N[C@@H]([C@H]2O[C@H](SC)[C@H](O)[C@@H](O)[C@H]2O)[C@H](C)Cl)N(C)C1", "note": "[Clindamycin, clindamycin, reference compound]", "values": [{"measurement": "MIC", "setting": "P. acnes (ATCC 6919); P. acnes 6919", "result": 0.063, "unit": "mg/L"}]}
{"smiles": "OC[C@H]1O[C@H](O[C@H]2[C@H](O)[C@@H](O)[C@H](O)O[C@@H]2CO)[C@H](O)[C@@H](O)[C@@H]1O", "note": "[D-(+)-maltose]", "values": [{"measurement": "acidification of media (phenol red colour) by S. epidermidis fermentation", "setting": "[1]", "result": "change of color from red to yellow"}]}
{"smiles": "O=C(O)CCC(=O)O", "note": "[DRM1, succinic acid]", "values": [{"measurement": "individual MIC", "setting": "P. acnes (ATCC 6919); P. acnes 6919", "result": 1771, "unit": "mg/L"}, {"measurement": "individual MIC", "setting": "P. acnes (ATCC 6919); P. acnes ATCC 6919", "result": 15, "unit": "mM"}, {"measurement": "MIC", "setting": "P. acnes (ATCC 6919); P. acnes 6919", "result": 1770, "unit": "mg/L"}, {"measurement": "MIC", "setting": "P. acnes (ATCC 6919); P. acnes ATCC 6919", "result": 15, "unit": "mM"}, {"measurement": "growth on plate after 15 minutes", "setting": "P. acnes 6919", "result": "growth was evident"}, {"measurement": "MIC", "setting": "[3]; Cutibacterium acnes, each of RMA#20660 and RMA#20661 (resistant to erythromycin, clindamycin, minocycline, doxycycline), ≥90% decrease in growth, OD600", "result": 15, "unit": "mM"}, {"measurement": "bactericidal activity against antibiotic-resistant P. acnes strains", "setting": "[3]; RMA#20660 and RMA#20661", "result": "bactericidal"}, {"measurement": "concentration preventing biofilm formation", "setting": "biofilm-forming strains", "result": "≥ 7.5", "unit": "mM"}, {"measurement": "spontaneous or progressive resistance development", "setting": "P. acnes", "result": "did not develop spontaneous or progressive resistance"}]}
{"smiles": "O=C(O)CCCCCCCC(=O)O", "note": "[Azelaic acid, azelaic acid, reference compound]", "values": [{"measurement": "MIC", "setting": "P. acnes (ATCC 6919); P. acnes ATCC 6919", "result": 7.5, "unit": "mM"}]}
